Data from ChEMBL document CHEMBL2176881, “Development of N-[4-[6-(isopropylamino)pyrimidin-4-yl]-1,3-thiazol-2-yl]-N-methyl-4-[11C]methylbenzamide for positron emission tomography imaging of metabotropic glutamate 1 receptor in monkey brain” (J Med Chem, 2012).

Legend:
[1] = Metabolic stability in Sprague-Dawley plasma assessed as unchanged drug level at 37 MBq/0.1 mL, iv after 15 mins; assay type: ADME, organism-based; details: rat, read-out: Stability
Spleen = assay: Biodistribution in ddY mouse spleen at 4.8 MBq/0.1 mL after 15 mins by gamma counting; assay type: ADME, organism-based; details: in vivo, 0.25 h
[2] = Drug uptake in monkey caudate at 185 to 220 MBq, iv after 10 mins by PET analysis; assay type: ADME, organism-based, Macaca mulatta, Caudate nucleus; details: rhesus monkey, in vivo
[3] = Metabolic stability in Sprague-Dawley brain assessed as unchanged drug level at 37 MBq/0.1 mL, iv after 15 mins; assay type: ADME, organism-based; details: rat, read-out: Stability
Mus musculus [4] = species: Mus musculus; assay: Biodistribution in ddY mouse large intestine at 4.8 MBq/0.1 mL after 5 mins by gamma counting; assay type: ADME, organism-based; details: in vivo
Kidney [5] = assay: Biodistribution in ddY mouse kidney at 4.8 MBq/0.1 mL after 5 mins by gamma counting; assay type: ADME, organism-based; details: in vivo
[6] = Drug uptake in monkey pons assessed as distribution volume ratio at 185 to 220 MBq, iv after 10 to 90 mins by PET analysis; assay type: ADME, organism-based, Macaca mulatta; details: rhesus monkey, in vivo
[7] = Drug uptake in monkey putamen assessed as distribution volume ratio at 185 to 220 MBq, iv after 10 to 90 mins by PET analysis; assay type: ADME, organism-based, Macaca mulatta; details: rhesus monkey, in vivo
Brain [8] = assay: Biodistribution in ddY mouse brain at 4.8 MBq/0.1 mL after 90 mins by gamma counting; assay type: ADME, organism-based; details: in vivo, 1.5 h
[9] = Drug uptake in monkey cerebellum at 185 to 220 MBq, iv after 20 mins by PET analysis; assay type: ADME, organism-based, Macaca mulatta; details: rhesus monkey, in vivo
[10] = Drug uptake in monkey cingulate cortex at 185 to 220 MBq, iv after 10 to 60 mins by PET analysis; assay type: ADME, organism-based, Macaca mulatta; details: rhesus monkey, in vivo
[11] = Metabolic stability in Sprague-Dawley plasma assessed as unchanged drug level at 37 MBq/0.1 mL, iv after 30 mins; assay type: ADME, organism-based; details: rat, read-out: Stability
Mus musculus [12] = species: Mus musculus; assay: Biodistribution in ddY mouse testis at 4.8 MBq/0.1 mL after 30 mins by gamma counting; assay type: ADME, organism-based; details: in vivo, 0.5 h
Lung = assay: Biodistribution in ddY mouse lung at 4.8 MBq/0.1 mL after 30 mins by gamma counting; assay type: ADME, organism-based; details: in vivo, 0.5 h
Kidney [13] = assay: Biodistribution in ddY mouse kidney at 4.8 MBq/0.1 mL after 60 mins by gamma counting; assay type: ADME, organism-based; details: in vivo, 1 h
Brain [14] = assay: Biodistribution in ddY mouse brain at 4.8 MBq/0.1 mL after 15 mins by gamma counting; assay type: ADME, organism-based; details: in vivo, 0.25 h
Liver [15] = assay: Biodistribution in ddY mouse liver at 4.8 MBq/0.1 mL after 1 min by gamma counting; assay type: ADME, organism-based; details: in vivo
Brain [16] = assay: Biodistribution in ddY mouse brain at 4.8 MBq/0.1 mL after 5 mins by gamma counting; assay type: ADME, organism-based; details: in vivo
[17] = Drug uptake in monkey thalamus assessed as distribution volume ratio at 185 to 220 MBq, iv after 10 to 90 mins by PET analysis; assay type: ADME, organism-based, Macaca mulatta; details: rhesus monkey, in vivo
Pancreas [18] = assay: Biodistribution in ddY mouse pancreas at 4.8 MBq/0.1 mL after 90 mins by gamma countingeas; assay type: ADME, organism-based; details: in vivo, 1.5 h
[19] = Drug uptake in monkey cingulate cortex at 185 to 220 MBq, iv after 20 mins by PET analysis; assay type: ADME, organism-based, Macaca mulatta; details: rhesus monkey, in vivo
[20] = Drug uptake in monkey thalamus at 185 to 220 MBq, iv after 10 to 60 mins by PET analysis; assay type: ADME, organism-based, Macaca mulatta; details: rhesus monkey, in vivo
[21] = Drug uptake in monkey pons at 185 to 220 MBq, iv after 10 to 60 mins by PET analysis; assay type: ADME, organism-based, Macaca mulatta; details: rhesus monkey, in vivo
[22] = Metabolic stability in Sprague-Dawley brain assessed as unchanged drug level at 37 MBq/0.1 mL, iv after 5 mins; assay type: ADME, organism-based; details: rat, read-out: Stability
Mus musculus [23] = species: Mus musculus; assay: Biodistribution in ddY mouse large intestine at 4.8 MBq/0.1 mL after 90 mins by gamma counting; assay type: ADME, organism-based; details: in vivo, 1.5 h
Blood [24] = assay: Biodistribution in ddY mouse blood at 4.8 MBq/0.1 mL after 30 mins by gamma counting; assay type: ADME, organism-based; details: in vivo, 0.5 h
Mus musculus [25] = species: Mus musculus; assay: Biodistribution in ddY mouse small intestine at 4.8 MBq/0.1 mL after 60 mins by gamma counting; assay type: ADME, organism-based; details: in vivo, 1 h
Mus musculus [26] = species: Mus musculus; assay: Biodistribution in ddY mouse testis at 4.8 MBq/0.1 mL after 15 mins by gamma counting; assay type: ADME, organism-based; details: in vivo, 0.25 h
Blood [27] = assay: Biodistribution in ddY mouse blood at 4.8 MBq/0.1 mL after 15 mins by gamma counting; assay type: ADME, organism-based; details: in vivo, 0.25 h
[28] = Drug uptake in monkey putamen at 185 to 220 MBq, iv after 10 mins by PET analysis; assay type: ADME, organism-based, Macaca mulatta; details: rhesus monkey, in vivo
[29] = Drug uptake in monkey cerebellum at 185 to 220 MBq, iv after 10 to 60 mins by PET analysis; assay type: ADME, organism-based, Macaca mulatta; details: rhesus monkey, in vivo
Mus musculus [30] = species: Mus musculus; assay: Biodistribution in ddY mouse large intestine at 4.8 MBq/0.1 mL after 1 min by gamma counting; assay type: ADME, organism-based; details: in vivo
[31] = Metabolic stability in Sprague-Dawley plasma assessed as unchanged drug level at 37 MBq/0.1 mL, iv after 5 mins; assay type: ADME, organism-based; details: rat, read-out: Stability
Pancreas [32] = assay: Biodistribution in ddY mouse pancreas at 4.8 MBq/0.1 mL after 60 mins by gamma countingeas; assay type: ADME, organism-based; details: in vivo, 1 h
Mus musculus [33] = species: Mus musculus; assay: Biodistribution in ddY mouse large intestine at 4.8 MBq/0.1 mL after 60 mins by gamma counting; assay type: ADME, organism-based; details: in vivo, 1 h
Pancreas [34] = assay: Biodistribution in ddY mouse pancreas at 4.8 MBq/0.1 mL after 30 mins by gamma countingeas; assay type: ADME, organism-based; details: in vivo, 0.5 h
Pancreas [35] = assay: Biodistribution in ddY mouse pancreas at 4.8 MBq/0.1 mL after 1 min by gamma countingeas; assay type: ADME, organism-based; details: in vivo
Liver [36] = assay: Biodistribution in ddY mouse liver at 4.8 MBq/0.1 mL after 30 mins by gamma counting; assay type: ADME, organism-based; details: in vivo, 0.5 h
Liver [37] = assay: Biodistribution in ddY mouse liver at 4.8 MBq/0.1 mL after 15 mins by gamma counting; assay type: ADME, organism-based; details: in vivo, 0.25 h
Mus musculus [38] = species: Mus musculus; assay: Biodistribution in ddY mouse large intestine at 4.8 MBq/0.1 mL after 30 mins by gamma counting; assay type: ADME, organism-based; details: in vivo, 0.5 h
Kidney [39] = assay: Biodistribution in ddY mouse kidney at 4.8 MBq/0.1 mL after 30 mins by gamma counting; assay type: ADME, organism-based; details: in vivo, 0.5 h
Blood [40] = assay: Biodistribution in ddY mouse blood at 4.8 MBq/0.1 mL after 5 mins by gamma counting; assay type: ADME, organism-based; details: in vivo
Mus musculus [41] = species: Mus musculus; assay: Biodistribution in ddY mouse large intestine at 4.8 MBq/0.1 mL after 15 mins by gamma counting; assay type: ADME, organism-based; details: in vivo, 0.25 h
Brain [42] = assay: Drug uptake in monkey brain at 185 to 220 MBq, iv after 10 to 60 mins by PET analysis in presence of unlabeled N-[4-[6-(Isopropylamino)pyrimidin-4-yl]-1,3-thiazol-2-yl]- N,4-dimethylbenzamide; assay type: ADME, organism-based, Macaca mulatta; details: rhesus monkey, in vivo
Mus musculus [43] = species: Mus musculus; assay: Biodistribution in ddY mouse small intestine at 4.8 MBq/0.1 mL after 90 mins by gamma counting; assay type: ADME, organism-based; details: in vivo, 1.5 h
[44] = Metabolic stability in monkey plasma assessed as unchanged drug level at 185 MBq/0.1 mL, iv after 15 mins; assay type: ADME, organism-based, Macaca mulatta; details: rhesus monkey, read-out: Stability
Kidney [45] = assay: Biodistribution in ddY mouse kidney at 4.8 MBq/0.1 mL after 90 mins by gamma counting; assay type: ADME, organism-based; details: in vivo, 1.5 h
Mus musculus [46] = species: Mus musculus; assay: Biodistribution in ddY mouse testis at 4.8 MBq/0.1 mL after 1 min by gamma counting; assay type: ADME, organism-based; details: in vivo
Liver [47] = assay: Biodistribution in ddY mouse liver at 4.8 MBq/0.1 mL after 60 mins by gamma counting; assay type: ADME, organism-based; details: in vivo, 1 h

Which results are given for CC(C)Nc1cc(-c2csc(N(C)C(=O)c3ccc([14CH3])cc3)n2)ncn1?
remaining at 0.25 h [1]: 47.6%; Drug uptake (Spleen): 0.29 % ID/g; Drug uptake [2]: Active; remaining at 0.25 h [3]: 95.2%; Drug uptake (Mus musculus [4]): 1.03 % ID/g; Drug uptake (Kidney [5]): 4.41 % ID/g; Ratio [6]: 1; Ratio [7]: 1.5; Drug uptake (Brain [8]): 0.62 % ID/g; SUV [9]: 1.2; Drug uptake [10]: Active; remaining at 0.5 h [11]: 39%; Drug uptake (Mus musculus [12]): 0.22 % ID/g; Drug uptake (Lung): 0.31 % ID/g; Drug uptake (Kidney [13]): 0.22 % ID/g; Drug uptake (Brain [14]): 1.99 % ID/g; Drug uptake (Liver [15]): 11.47 % ID/g; Drug uptake (Brain [16]): 2.58 % ID/g; Ratio [17]: 2; Drug uptake (Pancreas [18]): 0.04 % ID/g; SUV [19]: 0.9; Drug uptake [20]: Active; Drug uptake [21]: Active; remaining at 5 min [22]: 94%; Drug uptake (Mus musculus [23]): 7.02 % ID/g; Drug uptake (Blood [24]): 0.14 % ID/g; Drug uptake (Mus musculus [25]): 17.46 % ID/g; Drug uptake (Mus musculus [26]): 0.41 % ID/g; Drug uptake (Blood [27]): 0.37 % ID/g; Drug uptake [28]: Active; Drug uptake [29]: Active; Drug uptake (Mus musculus [30]): 1.28 % ID/g; remaining at 5 min [31]: 67.9%; Drug uptake (Pancreas [32]): 0.03 % ID/g; Drug uptake (Mus musculus [33]): 1.98 % ID/g; Drug uptake (Pancreas [34]): 0.06 % ID/g; Drug uptake (Pancreas [35]): 4.48 % ID/g; Drug uptake (Liver [36]): 1.43 % ID/g; Drug uptake (Liver [37]): 4.89 % ID/g; Drug uptake (Mus musculus [38]): 2.32 % ID/g; Drug uptake (Kidney [39]): 0.56 % ID/g; Drug uptake (Blood [40]): 1.27 % ID/g; Drug uptake (Mus musculus [41]): 1.2 % ID/g; Drug uptake (Brain [42]): Not Active; Drug uptake (Mus musculus [43]): 7.09 % ID/g; remaining at 0.25 h [44]: 43.1%; Drug uptake (Kidney [45]): 0.11 % ID/g; Drug uptake (Mus musculus [46]): 1.07 % ID/g; Drug uptake (Liver [47]): 0.51 % ID/g
